Source: patent US20090104196A1, “Antibodies For Use in Identifying and/or Scoring Prostate Cancer and Androgen Receptor-Dependent Gene Expression Control” (priority 2005, published 2009)
Entries after “also recorded” stand apart in the source; their conditions may differ.

How the values were obtained:
[1] = system: LSD1-induced activation of AR; assay: Transient transfection AR-dependent luciferase reporter assay in 293 cells (LSD1 + AR co-expression); type: cell-based; conditions: R1881, 3×10^−3 M pargyline, 1×10^−3 M deprenyl, or 1×10^−4 M clorgyline for 18 hours, FIG. 4c
Description: (§1) 293 and CV-1 cells were cultured and transfected as described^12. LNCaP cells were cultured in phenol-red-free RPMI1640 supplemented with 10% double-stripped fetal calf serum (dsFCS) and transfected with Effectene (Qiagen). The following amounts per well were used: MMTV-LUC, ARE2X-TATA-LUC, ARE2X-TK-LUC, TK-LUC, TREp-LUC, β-RE-LUC, ERE2X-TATA-LUC, PSA-LUC, Slp-ARU-TATA-LUC 500 ng each, 25 ng expression plasmids for AR, PR, ERα, RARα, and TRβ; 500 to 700 ng expression plasmids for LSD1 1-174, LSD1 175-246, LSD1 247-852, LSD1Δ281-360, LSD1ΔAO, pSUPER-control, and pSUPER-LSD1; 100 to 700 ng expression plasmids for LSD1 were transfected per well. […] Luciferase activity was assayed as described^9. All experiments were repeated at least five times in duplicate.

LSD1 = biological target: T1, LSD1 (Homo sapiens, UniProt O60341); assay: Chromatin immunoprecipitation (ChIP) of histone methylation marks at the PSA promoter in LNCaP cells; type: cell-based
T1 construct: endogenous in cells; host or cells: LNCaP cells
Description: ChIP experiments were performed essentially as described^14. […] LNCaP cells were transfected three days before harvesting for ChIP with or without siRNA (Qiagen) following the manufacture's instructions. Immunoprecipitation was performed with specific antibodies (α-monoMeK9H3, α-diMeK9H3, α-triMeK9H3, α-monoMeK4H3, α-diMeK4H3, α-triMeK4H3, α-H3 (abcam), α-LSD1, and α-AR PG21 (Upstate Biotechnology) on GammaBind TMSepharose 4B (GE-Healthcare). For PCR, 1-5 μl out of 50 μl DNA extract was used. For Re-ChIP assays, immunoprecipitations were sequentially washed with TSE I, TSE II, buffer III, and TE^14. Complexes were eluted by incubation with 10 mM DTT at 37° C. for 30 min, diluted 50 times with dilution buffer^14 followed by a second immunoprecipitation with the indicated antibody. Primer sequences were as follows: exon 4, PSA (+3909/+4067) 5′-[…]-3′ and 5′-[…]-3′; middle, PSA (−2223/−1951) 5′-[…]-3′ and 5′-[…]-3′; PCR primers for ARE I+II (PSA (−459/−121)) and ARE III (PSA ([…])), GAPDH, and U6 have been previously described^7, 15, 16.

[2] = system: other nuclear receptors (PR, ERα, RARα, TRβ); assay: Reporter assays for other nuclear hormone receptors in 293 cells; type: cell-based; conditions: pargyline, FIG. 10k
Description: as §1

PSA gene = assay: qRT-PCR of endogenous PSA gene expression in LNCaP cells; type: cell-based, human; conditions: pargyline, FIG. 4d
Description: DNAsel-treated RNA isolated using RNAwiz (Ambion) was used for reverse transcription. Quantitative PCR was performed in an ABI PRISM 7700 sequence detector. Product formation was detected by incorporation of SYBR Green I using ROX as a passive reference (ABgene). The expression ratios of the analyzed cDNAs were related to the normalized Cp of the housekeeping gene GAPDH in control and sample. The following primers were used: GAPDH: 5′-[…]-3′; 5′-[…]-3′; PSA: 5′-[…]-3′; 5′-[…]-3′. Statistical analysis for qPCR was performed by group-wise comparison based on PCR efficiencies and the mean crossing point deviation between sample and control group using Relative Expression Software Tool^19. Experiments were repeated and analysed three times.

[3] = R1881, PSA promoter, pargyline, FIG. 8

Compound | LSD1-induced activation of AR [1] | demethylation of mono- and dimethyl H3-K9 during androgen-induced transcription (LSD1; R1881, PSA promoter (ARE I+II), pargyline 18 hours, FIG. 3b) | methylation levels of trimethyl H3-K9 (LSD1; R1881, PSA promoter, pargyline, FIG. 3b) | methylation status of H3-K27 (LSD1; [3]) | methylation status of H4-K20 (LSD1; [3]) | methylation of histone H3 at lysine 4 (H3-K4) (LSD1; in vivo ChIP, pargyline, FIG. 3b) | activity of other nuclear receptors [2] | androgen-induced expression of the endogenous PSA gene (PSA gene) | androgen-induced expression of the endogenous PSA gene (PSA gene; listed as Pargyline)
C#CCN(C)CCCOc1ccc(Cl)cc1Cl [clorgyline, N-methyl-N-propargyl-3-(2,4-dichlorophenoxy-)propylamine] | severely impair | – | – | – | – | – | – | – | –
C#CCN(C)[C@H](C)Cc1ccccc1 [deprenyl, (R)-(−)-N,2-dimethyl-N-2-propynylphenethylamine] | severely impair | – | – | – | – | – | – | – | –
C#CCN(C)Cc1ccccc1 [pargyline, N-methyl-N-2-propynylbenzylamine] | severely impair | blocks | remain unchanged | remain unchanged | remain unchanged | not influenced | does not influence; also recorded: fails to block | blocks | reduces
